Measurements published in PMC5640672, “Molecular mechanism of synergy between the antimicrobial peptides PGLa and magainin 2” (Scientific Reports, 2017).
No end group written: not given here.

Assays:
[1] = Fluorescence ANTS/DPX vesicle leakage assay in POPE/POPG/TOCL (72:23:5); conditions: POPE/POPG/TOCL (72:23:5) 100 nm vesicles, P/L ≈ 1:30, mixtures 1:1, 10 mM HEPES pH 7.5, 155 mM NaCl, 30 °C, 600 s, % of Triton-X-100 leakage, mean of n = 3
Description: It could be argued that POPC/POPG (3:1) is not the most appropriate model system to describe a bacterial membrane, which rarely contains PC lipids. We therefore also performed leakage in another lipid system, POPE/POPG/TOCL (72:23:5), which is a good model of E. coli membranes[45],[69],[70]. […] For all of the other mutants discussed below, leakage was also studied both in POPC/POPG as well as POPE/POPG/TOCL, but since the results (synergy or no synergy) were in all cases the same, the latter data will not be presented in the text. All leakage data in POPE/POPG/TOCL (72:23:5) for charge mutants are summarized in Supplementary Table S4.
Leakage of small unilamellar vesicles induced by the peptides was studied using a standard fluorescence assay.
The appropriate lipids for each experiment were dissolved in CHCl3, together with 0.02 mol-% Rhodamine-PE (Rh-PE). […] This stock suspension was subjected to 10 freeze-thaw cycles and then frozen. Appropriate aliquots of the stock lipid suspension were unfrozen each day and extruded (41 times) through polycarbonate membranes with 100 nm pore size, and stored at room temperature overnight. The fluorophore and quencher outside the vesicles were removed by size exclusion chromatography using spin-columns (Pierce centrifuge column, 2 ml, Life Technologies GmbH, Darmstadt, Germany) filled with Sephacryl 100-HR (2 min, 1500 × g). For elution, a 10 mM HEPES buffer (pH 7.5) was used, containing 155 mM NaCl to balance the osmolarity. After extrusion and removal of the external dye and quencher, the lipid concentration usually decreases. Therefore, before each set of measurements a rhodamine spectrum was recorded to determine the actual concentration of lipids, which was referenced to a spectrum taken of vesicles made by sonification without any subsequent treatment.
Fluorescence experiments were performed on a FluoroMax2 spectrofluorimeter (HORIBA Jobin Yvon, Unterhaching, Germany) equipped with a thermostated sample holder and magnetic stirrer, using an excitation wavelength of 355 nm, an emission wavelength of 508 nm, and slit widths of 5 nm. The peptide solutions were placed in elution buffer in a 1 cm standard cuvette at 30 °C. 100 s after the start of the measurement lipid vesicles were added, and the intensity of the fluorescence at 508 nm was recorded. The leakage was measured during 600 s after addition of vesicles, and the measurement was terminated after addition of Triton-X-100 (0.25% v/v), which dissolved the vesicles, and yielded 100% leakage. To determine the background signal of the vesicles themselves, several blanks were recorded per measurement set. From the leakage values of the peptides alone and of the mixture of two peptides a synergy factor SF was calculated:3 SF=L(A+B)/[L(A)+L(B)] Here, L(A) is the leakage found with peptide A alone, L(B) is the leakage found with peptide B alone, and L(A + B) is the leakage found with the mixture of peptides A and B. In all cases the P/L was the same for both peptides, alone and in the mixture, so that in the mixture the total P/L was twice that of the individual peptide measurements. […] Measurements were repeated three times and average values and standard deviations calculated for the leakage and the synergy factors. An average SF ≥ 2 was taken to indicate synergy.

S. aureus DSM 1104 = assay: Checker-board assay (FICI); type: cell-based, Staphylococcus aureus; conditions: for FICI in combination with MAG2-WT: below 0.5 = synergistic activity
Procedure: A suitable method to study synergistic antimicrobial activity is the so-called checker-board assay, described in the Methods section. We performed such experiments on one Gram-negative bacterium, E. coli, and one Gram-positive one, S. aureus. From this method a fractional inhibitory concentration index (FICI) is determined, and when this is below 0.5, the peptides are said to have a synergistic effect against bacteria. This is the biologically relevant effect, but we are here interested in the atomistic details of the interactions behind the effect. Therefore we also use biophysical methods.
The antimicrobial activity of the peptides was investigated with a standard MIC assay[87],[88] on one Gram positive (Staphylococcus aureus, DSM 1104, ATCC 25923) and one Gram negative bacterial strain (Escherichia coli, DSM 1103, ATCC 25922). Bacteria were grown in Müller-Hinton medium (MH) at 37 °C and 220 rpm. Overnight cultures were inoculated from a single colony and grown for approximately 16 h. Day cultures were grown for approximately 3 h until they reached the exponential growth phase. These suspensions were diluted with MH-medium to a concentration of 10^6 colony-forming units (CFU) per ml. The microtiter plates (96 wells of 100 µL) were filled with 50 µL of MH, and serial 2-fold dilutions of each peptide were arranged in triplets along the columns. […] Two columns were filled with medium only, to serve as a positive control (bacteria), and as a negative control (no bacteria) to check for contamination of the medium. The bacterial suspension was added in 50 µL aliquots to each well, except for the negative control, to reach a final concentration of 5 × 10^5 CFU/ml. The plates were incubated for 22 h at 37 °C. To each well 20 µL of 0.2 mg/ml Resazurin solution was added and incubated for another two hours. The MIC value was determined visually, as the lowest peptide concentration which inhibited bacterial growth in at least two out of three columns.
To visualize synergy between different peptides, a two-dimensional dilution assay was used[89],[90]. The same bacterial strains were used as in the MIC assay. The procedure of preparing the bacterial suspensions was analogous to the MIC assay, but with a higher final concentration because the volumes in the two setups are different. The main plate (MP) was filled with 40 µl of MH, and serial 2-fold dilutions of the peptide were arranged in each row (8 rows × 7 columns). As described above, the first column was filled with doubly concentrated medium. On another plate (HP, help plate) a second peptide dilution assay was performed, but orthogonal to the main plate. The last row was left empty (7 rows × 8 columns). 40 µL of each well of the HP were transferred to each well of the MP (A1 → A1, etc.). Two columns were filled with medium only, to serve as a positive control (bacteria), and as a negative control (no bacteria) to check for contamination of the medium. The bacterial suspension was added in 20 µL aliquots to each well, except for the negative control, to reach a final concentration of 5 × 10^5 CFU/ml. The plates were incubated for 22 h at 37 °C. To each well 20 µL of 0.1 mg/ml Resazurin solution was added and incubated for another two hours. From these plates, it is possible to determine the MIC value for each of the two peptides, as well as the inhibitory values of the mixtures with 7 × 7 different peptide ratios. From these values, fractional inhibitory concentration indices (FICIs) were calculated with the following formula[89],[91]:1 FICI=[MIC(A)^comb/MIC(A)^alone]+[MIC(B)^comb/MIC(B)^alone] In this formula, MIC(A)^alone is the MIC value determined for peptide A alone, and MIC(A)^comb is the concentration of peptide A at the MIC determined for the combination. The same holds for peptide B. FICI values below 0.5 are taken to indicate a clear synergistic effect, values between 0.5 and 2 an additive effect, and values above 2 an antagonistic effect[89],[92].

[2] = Table S8 series (PGLa-to-MSI mutants)
[3] = Table S4 series (charge mutants)

## GMASKAGKIAGKIAKVALKAL-NH2 (also: 15N-labeled Ala10) [PtM-A8K, PGLa single mutant A8K]
[1]; [2]
  Leakage, mean value: 7.1%
S. aureus DSM 1104
  FICI in combination with MAG2-WT: below 0.5

## KIAGKIGKIAGKIAKIAGKIA-NH2 [MtP-A7G, MSI-103 to PGLa single mutant A7G]
[1]; Table S12 series (MSI-to-PGLa mutants)
  Leakage, mean value: 5.1%
S. aureus DSM 1104
  FICI in combination with MAG2-WT: below 0.5

## KIAGKAGAIAGKIAKVALKAL-NH2 [PtM-a2, PGLa to MSI-103 mutant, three amino acids converted]
[1]; [2]
  Leakage, mean value: 4.5%
S. aureus DSM 1104
  FICI in combination with MAG2-WT: below 0.5

## GIGKFLHSAKKFGKAFVGKIMNS-OH [MAG2-E19K, MAG2 charge mutant E19K]
[1]; [3]
  Leakage, mean value: 1.6%
S. aureus DSM 1104
  FICI in combination with PGLa-WT: above 0.5

## GMASKIGAIAGKIAKVALKAL-NH2 (also: 15N-labeled Ala10) [PtM-A6I, PGLa single mutant A6I]
[1]; [2]
  Leakage, mean value: 3.7%
S. aureus DSM 1104
  FICI in combination with MAG2-WT: below 0.5

## GIGKFLHSAKKFGKAFVGKIMNS-NH 2 (GIGKFLHSAKKFGKAFVGKIMNS-NH2) [MAG2-E19K-amide, amidated MAG2 E19K mutant]
[1]; [3]
  Leakage, mean value: 2.9%
S. aureus DSM 1104
  FICI in combination with PGLa-WT: above 0.5

## GMASKAGAIAGKIAKIAGKIA-NH2 [PtM-c1, PGLa to MSI-103 mutant, segment C replaced]
[1]; [2]
  Leakage, mean value: 1.5%
S. aureus DSM 1104
  FICI in combination with MAG2-WT: below 0.5
